These results are taken from patent US20190099259A1, “Method for Treatment and Prevention of Biofilm Formation During Breast Augmentation Procedures” (Integrated Healing Technologies, LLC, priority 2017, published 2019).

SMILES strings stand for the structures.

One experiment has as its system R. pickettii biofilm. Description: biofilm assay on silicone breast implants. In kind it is cell-based, Ralstonia Pickettii. How it is done: Biofilm assays were performed after 2 to 3 mL of 10^5 CFU/mL bacterial inoculum was added to each tube containing the respective implants and placed into a shaking incubator (250-300 rpm) at 30° C. for 24 hours, allowing for formation of biofilm on implants. After 24 hours' incubation, the implants having the biofilm were rinsed twice with Butterfields phosphate buffer. After the rinses, the implants were aseptically transferred to tubes containing 5 mL test articles for contact time points; 5 min and 2 hours. Postincubation, the implants were rinsed twice with Butterfields phosphate buffer, placed in 5 mL of sterile neutralizing buffer and sonicated at 50 to 60 Hz for 5 minutes. Tenfold serial dilutions were performed for each sample tube using neutralizing buffer as the diluent. A total of 100 μL of appropriate dilutions of each sample were plated on a nutrient agar plate in duplicates and incubated overnight. The colonies were counted postincubation. Data were evaluated by comparing the difference in CFU/mL for the implants and blank control at 5 min and 2 hours.

Experiment [1] deals with microbial cells and spore. The conditions noted are these: cited from earlier work.

For the compound `[H]/N=C(\N/C(=N/[H])NCCCCCCNC(=N)NC(=N)Nc1ccc(Cl)cc1)Nc1ccc(Cl)cc1` [Chlorhexidine gluconate], the antibiofilm activity entry with R. pickettii biofilm (Biocell implant, 5 minutes) was “did not have antibiofilm activity”; in the experiment on R. pickettii biofilm (Biocell implant, 2 hours), “did not have antibiofilm activity”; in the experiment with R. pickettii biofilm (Siltex implant, 5 minutes), “did not have antibiofilm activity”; in the experiment on R. pickettii biofilm (Siltex implant, 2 hours), “did not have antibiofilm activity”; with R. pickettii biofilm (smooth implant, 5 minutes) it was “limited reduction”; with R. pickettii biofilm (smooth implant, 2 hours), “complete eradication”. The “penetration of established biofilm” value in the experiment with R. pickettii biofilm (after two hours) was “unable to penetrate established biofilm”.
In the case of `OCl` [Hypochlorous acid, hypochlorous acid], the “effect in the biofilm model” value in the experiment with R. pickettii biofilm (general statement) is on record as “effective at reducing Ralstonia Pickettii bacterial numbers”. For the same compound, in experiment [1], the “potency as a germicide versus equivalent molar ratio of hypochlorite anion” value is listed as 80-100 times.
